Where two headings read alike, the source gives them in different places.
Legend:
[1] = tested on: ATCC strain 43300 Staphylococcus aureus; conditions: for recovery after enrichment in Mueller-Hinton broth: 1 cfu detection limit
Procedure: Additional antibiotic was added every 24 hours. The growth periods tested were 24 (see FIG. 4), 48, 72, 96 and 120 hours.
USP<51> Antimicrobial Effectiveness protocol was used as the template experimental paradigm. […] All concentrations were plated out to the 10^−7 dilutions to ascertain cfu/ml. […] Additional antibiotic was added at the initial concentration every 24 hours.
ATCC strain 43300 Staphylococcus aureus was streaked out for isolations. An isolated colony was chosen, streaked again and incubated. Isolate was chosen and then diluted to a McFarland standard of one. The estimated value was then taken to inoculate tubes containing growth media and 12, 30 or 60 μg/ml oxacillin with approximately 10^5 cfu/ml. These tubes were incubated and plated for counting cfu. A clone having no observed log reduction in cfu was selected for the rest of the experiment.
Material was calculated on a 10 ml volume. Sterile oxacillin was added to each experimental condition to a final concentration of 12, 30 or 60 μg/ml antibiotic.
All tubes were then inoculated with a dilution of the selected ATCC strain 43300 Staphylococcus aureus clone giving a final level of colony forming units of 3.3×10^5/ml (log=5.52). The tubes were incubated at 25° C. and mixed periodically. Antibiotic was re-inoculated every 24 hours at the initial concentration to maintain pressure on the organism. Plating was done at 24, 48, 72, and 120 hours. Each condition was plated by diluting 1 ml of growth material into 9 ml of MLB diluent broth. […] This mixture was serial diluted down to 10^−7 with 1 ml placed in triplicate in a sterile petri dish at each dilution point. 20 mls of TSA was added to each dilution, swirled and allowed to solidify. All dilutions were placed in a 35° C. incubator for 24 to 72 hours. Bacterial colonies on each plate were counted and the average taken then changed into log format. Any cfu/ml observed greater than 3.3×10^5 (log=5.5) were recorded as >3.3×10^5.
The tube was then taken out of the experiment and tested for ATCC strain 43300 Staphylococcus growth. The tube was spun down at 5000 rpm for 10 minutes. The supernatant was then decanted into 90 mls of Mueller-Hinton broth with 6 μg/ml oxacillin. This is for enrichment and the recovery of any MRSA cells that may be present whether healthy or stressed. The pellet had 10 mls Mueller-Hinton broth with 6 μg/ml oxacillin added to it to recover any cells that may be present. Both vessels were incubated at 35° C. for 48 hours followed by plating every 24 hours. Each vessel was plated at 10 dilutions to obtain a 1 cfu detection limit.

[2] = tested on: ATCC strain 43300 Staphylococcus aureus; conditions: 24 hours; for average log reduction in cfu/ml: MSM (% in label) with antibiotic (12, 30, 60 μg/ml oxacillin or methicillin)
Procedure: All concentrations were plated out to the 10^−7 dilutions to ascertain cfu/ml.
ATCC strain 43300 Staphylococcus aureus was streaked out for isolations and 25 clones were picked and diluted to a McFarland standard of one. The estimated value was then taken to inoculate tubes containing growth media and 12, 30 or 60 μg/ml methicillin or oxacillin with around 10^−7 cfu/tube.
Material was calculated on a 10 ml volume. Sterile oxacillin or methicillin was added to each experimental condition to a final concentration of 12, 30 or 60 μg/ml antibiotic.
All tubes were then inoculated with a dilution of the selected ATCC strain 43300 Staphylococcus aureus clone giving a final level of colony forming units of 9.4×10^7/ml (log=7.97). The tubes were incubated at 25° C. and mixed periodically. […] Plating was done at 24 hours. Each condition was plated by diluting 1 ml of growth material into 9 ml of MLB diluent broth. This mixture was serial diluted down to 10^−7, and 1 ml placed in a sterile petri dish at each dilution point. 20 mls of TSA was added to each dilution, swirled and allowed to solidify. All dilutions were placed in a 35° C. incubator for 24 hours. Bacterial colonies on each plate were counted and colony counts changed into log format. A positive and negative control was ascertained.

CS(C)(=O)=O [MSM, Methylsulfonylmethane]
survival, Average Log ([1]; 30 μg/ml oxacillin + MSM (% in label), 72 hours, listed as 13% MSM): 1.8 Log
survival, Average Log ([1]; 30 μg/ml oxacillin + MSM (% in label), 72 hours, listed as 14% MSM): 2.2 Log
survival, Average Log ([1]; 30 μg/ml oxacillin + MSM (% in label), 72 hours, listed as 15% MSM): 2.4 Log
survival, Average Log ([1]; 30 μg/ml oxacillin + MSM (% in label), 72 hours, listed as 16% MSM): 1.9 Log
recovery after enrichment in Mueller-Hinton broth ([1]; 30 μg/ml oxacillin, 120 hours): total kill
survival, Average Log ([1]; 60 μg/ml oxacillin + MSM (% in label), 24 hours, listed as 5% MSM): 2.54 Log
survival, Average Log ([1]; 60 μg/ml oxacillin + MSM (% in label), 24 hours, listed as 6% MSM): 2.38 Log
survival, Average Log ([1]; 60 μg/ml oxacillin + MSM (% in label), 24 hours, listed as 7% MSM): 2.34 Log
survival, Average Log ([1]; 60 μg/ml oxacillin + MSM (% in label), 24 hours, listed as 8% MSM): 2.67 Log
survival, Average Log ([1]; 60 μg/ml oxacillin + MSM (% in label), 24 hours, listed as 9% MSM): 2.50 Log
survival, Average Log ([1]; 60 μg/ml oxacillin + MSM (% in label), 24 hours, listed as 10% MSM): 2.63 Log
survival, Average Log ([1]; 60 μg/ml oxacillin + MSM (% in label), 24 hours, listed as 11% MSM): 2.83 Log
survival, Average Log ([1]; 60 μg/ml oxacillin + MSM (% in label), 24 hours, listed as 12% MSM): 2.86 Log
survival, Average Log ([1]; 60 μg/ml oxacillin + MSM (% in label), 24 hours, listed as 13% MSM): 2.80 Log
survival, Average Log ([1]; 60 μg/ml oxacillin + MSM (% in label), 24 hours, listed as 14% MSM): 2.03 Log
survival, Average Log ([1]; 60 μg/ml oxacillin + MSM (% in label), 24 hours, listed as 15% MSM): 3.81 Log
survival, Average Log ([1]; 60 μg/ml oxacillin + MSM (% in label), 24 hours, listed as 16% MSM): 3.83 Log
survival, Average Log ([1]; 60 μg/ml oxacillin + MSM (% in label), 48 hours, listed as 5% MSM): 3.5 Log
survival, Average Log ([1]; 60 μg/ml oxacillin + MSM (% in label), 48 hours, listed as 6% MSM): 1.8 Log
survival, Average Log ([1]; 60 μg/ml oxacillin + MSM (% in label), 48 hours, listed as 7% MSM): 4.0 Log
survival, Average Log ([1]; 60 μg/ml oxacillin + MSM (% in label), 48 hours, listed as 8% MSM): 2.8 Log
survival, Average Log ([1]; 60 μg/ml oxacillin + MSM (% in label), 48 hours, listed as 9% MSM): 2.2 Log
survival, Average Log ([1]; 60 μg/ml oxacillin + MSM (% in label), 48 hours, listed as 10% MSM): 2.2 Log
survival, Average Log ([1]; 60 μg/ml oxacillin + MSM (% in label), 48 hours, listed as 11% MSM): 2.1 Log
survival, Average Log ([1]; 60 μg/ml oxacillin + MSM (% in label), 48 hours, listed as 12% MSM): 2.0 Log
survival, Average Log ([1]; 60 μg/ml oxacillin + MSM (% in label), 48 hours, listed as 13% MSM): 1.7 Log
survival, Average Log ([1]; 60 μg/ml oxacillin + MSM (% in label), 48 hours, listed as 14% MSM): 2.2 Log
survival, Average Log ([1]; 60 μg/ml oxacillin + MSM (% in label), 48 hours, listed as 15% MSM): 2.1 Log
survival, Average Log ([1]; 60 μg/ml oxacillin + MSM (% in label), 48 hours, listed as 16% MSM): 1.9 Log
survival, Average Log ([1]; 60 μg/ml oxacillin + MSM (% in label), 72 hours, listed as 11% MSM): 1 Log
survival, Average Log ([1]; 60 μg/ml oxacillin + MSM (% in label), 72 hours, listed as 12% MSM): 2.4 Log
survival, Average Log ([1]; 60 μg/ml oxacillin + MSM (% in label), 72 hours, listed as 13% MSM): 1 Log
survival, Average Log ([1]; 60 μg/ml oxacillin + MSM (% in label), 72 hours, listed as 14% MSM): 1.5 Log
survival, Average Log ([1]; 60 μg/ml oxacillin + MSM (% in label), 72 hours, listed as 16% MSM): 1.8 Log
log reduction in the number of cfu/ml ([1]; 60 μg/ml oxacillin, 24 hours): 3.5 log
recovery after enrichment in Mueller-Hinton broth ([1]; 60 μg/ml oxacillin, 72 hours): total kill
recovery after enrichment in Mueller-Hinton broth ([1]; 60 μg/ml oxacillin, 96 hours): total kill
recovery after enrichment in Mueller-Hinton broth ([1]; 60 μg/ml oxacillin, 120 hours): total kill
growth ([1]; positive 5%, 10%, and 16% MSM controls, no antibiotic, 24 hours): signs of turbid growth
survival (Log cfu/ml) ([2]; 12 μg/ml methicillin + MSM (% in label), inoculum log=7.97, listed as 5% MSM): 5.43 Log cfu/ml
survival (Log cfu/ml) ([2]; 12 μg/ml methicillin + MSM (% in label), inoculum log=7.97, listed as 6% MSM): 5.2 Log cfu/ml
survival (Log cfu/ml) ([2]; 12 μg/ml methicillin + MSM (% in label), inoculum log=7.97, listed as 7% MSM): 5.46 Log cfu/ml
survival (Log cfu/ml) ([2]; 12 μg/ml methicillin + MSM (% in label), inoculum log=7.97, listed as 8% MSM): 5.0 Log cfu/ml
survival (Log cfu/ml) ([2]; 12 μg/ml methicillin + MSM (% in label), inoculum log=7.97, listed as 9% MSM): 4.99 Log cfu/ml
survival (Log cfu/ml) ([2]; 12 μg/ml methicillin + MSM (% in label), inoculum log=7.97, listed as 10% MSM): 4.8 Log cfu/ml
survival (Log cfu/ml) ([2]; 12 μg/ml methicillin + MSM (% in label), inoculum log=7.97, listed as 11% MSM): 4.87 Log cfu/ml
survival (Log cfu/ml) ([2]; 12 μg/ml methicillin + MSM (% in label), inoculum log=7.97, listed as 12% MSM): 4.89 Log cfu/ml
survival (Log cfu/ml) ([2]; 12 μg/ml methicillin + MSM (% in label), inoculum log=7.97, listed as 13% MSM): 4.77 Log cfu/ml
survival (Log cfu/ml) ([2]; 12 μg/ml methicillin + MSM (% in label), inoculum log=7.97, listed as 14% MSM): 4.7 Log cfu/ml
survival (Log cfu/ml) ([2]; 12 μg/ml oxacillin + MSM (% in label), listed as 5% MSM): 5.28 Log cfu/ml
survival (Log cfu/ml) ([2]; 12 μg/ml oxacillin + MSM (% in label), listed as 6% MSM): 5.26 Log cfu/ml
survival (Log cfu/ml) ([2]; 12 μg/ml oxacillin + MSM (% in label), listed as 7% MSM): 5.18 Log cfu/ml
survival (Log cfu/ml) ([2]; 12 μg/ml oxacillin + MSM (% in label), listed as 8% MSM): 5.18 Log cfu/ml
survival (Log cfu/ml) ([2]; 12 μg/ml oxacillin + MSM (% in label), listed as 9% MSM): 5.16 Log cfu/ml
survival (Log cfu/ml) ([2]; 12 μg/ml oxacillin + MSM (% in label), listed as 10% MSM): 4.96 Log cfu/ml
survival (Log cfu/ml) ([2]; 12 μg/ml oxacillin + MSM (% in label), listed as 11% MSM): 4.8 Log cfu/ml
survival (Log cfu/ml) ([2]; 12 μg/ml oxacillin + MSM (% in label), listed as 12% MSM): 4.8 Log cfu/ml
survival (Log cfu/ml) ([2]; 12 μg/ml oxacillin + MSM (% in label), listed as 13% MSM): 4.9 Log cfu/ml
survival (Log cfu/ml) ([2]; 12 μg/ml oxacillin + MSM (% in label), listed as 14% MSM): 4.88 Log cfu/ml
survival (Log cfu/ml) ([2]; 30 μg/ml methicillin + MSM (% in label), listed as 9% MSM): 5.07 Log cfu/ml
survival (Log cfu/ml) ([2]; 30 μg/ml methicillin + MSM (% in label), listed as 10% MSM): 4.8 Log cfu/ml
survival (Log cfu/ml) ([2]; 30 μg/ml methicillin + MSM (% in label), listed as 11% MSM): 4.8 Log cfu/ml
survival (Log cfu/ml) ([2]; 30 μg/ml methicillin + MSM (% in label), listed as 12% MSM): 4.7 Log cfu/ml
survival (Log cfu/ml) ([2]; 30 μg/ml methicillin + MSM (% in label), listed as 13% MSM): 4.7 Log cfu/ml
survival (Log cfu/ml) ([2]; 30 μg/ml methicillin + MSM (% in label), listed as 14% MSM): 4.6 Log cfu/ml
survival (Log cfu/ml) ([2]; 30 μg/ml methicillin + MSM (% in label), listed as 15% MSM): 4.54 Log cfu/ml
survival (Log cfu/ml) ([2]; 30 μg/ml methicillin + MSM (% in label), listed as 16% MSM): 4.47 Log cfu/ml
survival (Log cfu/ml) ([2]; 30 μg/ml oxacillin + MSM (% in label), listed as 9% MSM): 5.02 Log cfu/ml
survival (Log cfu/ml) ([2]; 30 μg/ml oxacillin + MSM (% in label), listed as 10% MSM): 4.99 Log cfu/ml
survival (Log cfu/ml) ([2]; 30 μg/ml oxacillin + MSM (% in label), listed as 11% MSM): 4.94 Log cfu/ml
survival (Log cfu/ml) ([2]; 30 μg/ml oxacillin + MSM (% in label), listed as 12% MSM): 4.87 Log cfu/ml
survival (Log cfu/ml) ([2]; 30 μg/ml oxacillin + MSM (% in label), listed as 13% MSM): 4.9 Log cfu/ml
survival (Log cfu/ml) ([2]; 30 μg/ml oxacillin + MSM (% in label), listed as 14% MSM): 4.82 Log cfu/ml
survival (Log cfu/ml) ([2]; 30 μg/ml oxacillin + MSM (% in label), listed as 15% MSM): 4.74 Log cfu/ml
survival (Log cfu/ml) ([2]; 30 μg/ml oxacillin + MSM (% in label), listed as 16% MSM): 4.59 Log cfu/ml
average log reduction in cfu/ml ([2]; listed as 5% MSM): 2.2 log
average log reduction in cfu/ml ([2]; listed as 16% MSM): 3.3 log
colony numbers ([2]; MSM without antibiotic control condition): greater colony numbers than what was initially inoculated

From patent US20130338130A1 (priority 2009, published 2013)
